No end group written: not given here.
Legend:
[1] = test system: SKBR3 cell line with high HER2 expression; assay: Confocal fluorescence imaging of cells incubated with Cy5.5-labeled peptides; format: cell-based; conditions: 50 μM Cy5.5-labeled peptide, 4°C, 20 min
Experimental: Four cell lines (SKBR3, MCF7, MDA-MB-468, and 293A) were seeded at a density of 3000 cells/mL into culture dishes and allowed to culture overnight with 5% CO2 at 37°C. Cell nuclei was stained with 1 mM Hoechst 33342 in 200 μL cell culture medium and incubated at 37°C for 15 min. Then, cells were incubated in culture medium with 50 μM Cy5.5-labeled peptide at 4°C for 20 min. Finally, cells were washed three times with cold PBS for observation. An Olympus FV1000-IX81 confocal-laser scanning microscope was used for confocal fluorescence imaging. An FV5-LAMAR 633 nm laser was used as the excitation source, and the emission wave length was collected at 690 nm. Hoechst 33342 was excited by a FV5-LD405-2 405 nm laser and collected within the range of 422–472 nm. All microscope parameters were identical for all observations of the binding ability of the various peptides.

HUVEC = assay: Toxicity of peptides to cells (S4 Fig); format: cell-based
SKBR3 = assay: Toxicity of peptides to cells (S4 Fig); format: cell-based
[2] = test system: subcutaneous SKBR3 tumor xenografts; assay: In vivo and ex vivo fluorescence imaging of tumor targeting; parameters: species or system Balb/c female nude mice; conditions: for in vivo tumor fluorescence intensity (binding affinity increase) relative to the control Cy5.5: Cy5.5-labeled peptide 1 μM, 200 μL i.v. tail vein, 30 min postinjection, nude mice with SKBR3 xenografts, average n = 3; for ex vivo tumor fluorescence signal compared to controls: dissected tumors 30 min postinjection of Cy5.5-labeled peptide, n = 3
Experimental: Five to six-week-old Balb/c female nude mice were subcutaneously administered approximately 1 × 10^7 SKBR3 cells into the right hind leg, to establish xenografted tumors. Thereafter, tumor size was periodically measured with a caliper, and mice with tumors of 6−8 mm in diameter were selected for the following small animal experiments. Cy5.5–NHS (Lumiprobe) was used to label peptides. Either Cy5.5-peptides or the control Cy5.5 (1 μM, 200 μL) was intravenously injected into tumor-bearing nude mice via the tail vein. The mice were anesthetized and fluorescence signals measured using the small animal in vivo imaging system 30 min postinjection. Three mice were used for each peptide and for control. Near-infrared fluorescence imaging of tumor-bearing nude mice were taken with an exposure time of 50 ms, using the Cy5.5 filter sets (excitation: 673 nm; emission: 707 nm), and the intensities were quantified using the same software. Then, fluorescence images of the main organs and of tumors dissected from nude mice were individually taken as above.

HER2/biotin complex = HER2/biotin complex (Homo sapiens, UniProt P04626); assay: OBOC peptide library screening with magnetic beads; format: binding; conditions: library of 5184 sequences, HER2/biotin and magnetic streptavidin microspheres, 37°C, 2 h each step
Text: The OBOC peptide library was designed based on binding free energies derived from the MD simulations of single and double mutants that are lower than the HER2/4665 complex. These mutations are in the 4665 fragment of pertuzumab from 55 to 64: EWVADVNPNX55X56X57X58X59X60N61X62X63X64K. According to computational calculations, the V, S, and M mutants have lower energies for X55. This is also the case for G, M, and Y for X56; G, A, and V for X57; S, F, and H for X58; I and R for X59; Y and W for X60; Q and F for X62; R, W, Q, and V for X63; and F and R for X64. The result is a 3*3*3*3*2*2*2*4*2 = 5184 library capacity.
The OBOC library synthesis and screening was performed as per the previously used method. Briefly, HBTU (4 mmol) and Fmoc-amino acid (4 mmol) reagent was dissolved in 0.4 mol/L N-Methyl morpholine in N,N-dimethylformamide and coupled with the solid phase supporting materials for 40 min during the coupling step. A 20% piperidine was used to remove the Fmoc group for 10 min in the deprotection step. During the OBOC library synthesis, the amino acid coupling process was carried out in the “split” step, while the deprotection process was carried out in the “pool” step. After elongation, a trifluoroacetic acid cleavage reagent was introduced to cleave the side chain protection group of each residue. […]

[3] = target: HER2 on cells (SKBR3, high expression; MCF7, medium expression) (human (endogenous in SKBR3), UniProt P04626 23-1255); assay: cell-based or functional assay
[4] = target: T1, HER2 protein (human epidermal growth factor receptor 2) (human, UniProt P04626 23-652); assay: SPR; SPR imaging (SPRi, PlexArray HT); peptides immobilised through an N-terminal cysteine on a bare gold chip, blocked with 5% nonfat milk; HER2 or HSA in PBST flowed at 0.625 to 20 μg/mL; KD from fitting association-dissociation curves; conditions: both partners purified
T1 construct: Human epidermal growth factor receptor 2 (HER2), bought protein; Surmise: the bought protein is probably a soluble extracellular domain, possibly tagged; source: bought: Sino Biological Inc., China

In the case of “Cy5.5-58F63Y: peptide 58F63Y labeled with Cy5.5 (Cy5.5–NHS) (EWVADVNPNSGGFIYNQYFK; also: Cy5.5 label (via Cy5.5-NHS), position not given here)”, the “fluorescent intensity of Cy5.5-peptides in SKBR3 cells” value [1] is reported as “strongest fluorescence”.

EWVADVNPNSGGSIYNQRFK [compound 4665] was tested, and the “toxicity to HUVEC cells” value (HUVEC) was “no toxicity”, the “toxicity to SKBR3 cells” value (SKBR3) was “no toxicity” and the “in vivo tumor fluorescence intensity (binding affinity increase) relative to the control Cy5.5” value [2] was 3.52 fold. For the same molecule, the “ex vivo tumor fluorescence signal compared to controls” value [2] was “significantly high fluorescence signals”.

With EWVADVNPNSGGFIYNQYFK [58F63Y] the “toxicity to HUVEC cells” value (HUVEC) was “no toxicity”, the “toxicity to SKBR3 cells” value (SKBR3) was “no toxicity” and the “in vivo tumor fluorescence intensity (binding affinity increase) relative to the control Cy5.5” value [2] was 5.09 fold. For the same molecule, the “ex vivo tumor fluorescence signal compared to controls” value [2] was “significantly high fluorescence signals” and the “OBOC library screening result (bead identified by MALDI-TOF-MS/MS)” value (HER2/biotin complex) was “positive”.

In the case of EWVADVNPNSGGFIYNQYFK (also: Cy5.5 label (via Cy5.5-NHS), position not given here) [Cy5.5-labeled peptide 58F63Y], the “in vivo fluorescence intensity of SKBR3 tumor xenografts in nude mice 30 min after injection of Cy5.5-58F63Y, relative to the control Cy5.5” value [3] is reported as 5.09 fold.

B1: peptide 4665 (pertuzumab fragment Glu46 to Lys65) with N-terminal cysteine, for SPRi (peptide)
peptide: CEWVADVNPNSGGSIYNQRFK
notes: a cysteine residue linked to the amino terminal, for attachment to the bare gold chip; fragment of pertuzumab from Glu46 to Lys65 (beta hairpin); numbers count on: pertuzumab in PDB 1S78; source: synthetic peptide (Fmoc solid phase synthesis, HPLC purified)
Work on B1 yielded a Kd [4] of 9.86 µM.

B2: peptide 55V63Y with N-terminal cysteine, for SPRi (peptide)
peptide: CEWVADVNPNVGGSIYNQYFK
notes: a cysteine residue linked to the amino terminal, for attachment to the bare gold chip; numbers count on: pertuzumab (first letter is 46); source: synthetic peptide (Fmoc solid phase synthesis, HPLC purified)
In the case of B2, the Kd [4] is reported as 8.16 µM.

B3: peptide 55V (4665 with Ser55 to Val) with N-terminal cysteine, for SPRi (peptide)
peptide: CEWVADVNPNVGGSIYNQRFK
notes: as for B2
With B3 the Kd [4] was 64.6 µM.

B4: peptide 63Y (4665 with Arg63 to Tyr) with N-terminal cysteine, for SPRi (peptide)
peptide: CEWVADVNPNSGGSIYNQYFK
notes: as for B2
In the case of B4, the Kd [4] is reported as 1.54 µM.

B5: peptide 58F63Y with N-terminal cysteine, for SPRi (peptide)
peptide: CEWVADVNPNSGGFIYNQYFK
notes: as for B2
For B5, the Kd [4] was 0.536 µM.

B6: peptide 58F (4665 with Ser58 to Phe) with N-terminal cysteine, for SPRi (peptide)
peptide: CEWVADVNPNSGGFIYNQRFK
notes: as for B2
Molecule B6 has a Kd [4] of 1.32 µM.

— PMC5390981, “Peptide probes derived from pertuzumab by molecular dynamics modeling for HER2 positive tumor imaging” (PLoS Computational Biology, 2017)
